From patent US8546608B2, “Proteasome inhibitors and methods of using the same” (Cephalon, Inc., priority 2003, dated 2013)

Biological target: T1, proteasome in Molt-4 cells (human leukemia) (Homo sapiens, UniProt P20618+P28074)
T1 sequence (P28074 60-263): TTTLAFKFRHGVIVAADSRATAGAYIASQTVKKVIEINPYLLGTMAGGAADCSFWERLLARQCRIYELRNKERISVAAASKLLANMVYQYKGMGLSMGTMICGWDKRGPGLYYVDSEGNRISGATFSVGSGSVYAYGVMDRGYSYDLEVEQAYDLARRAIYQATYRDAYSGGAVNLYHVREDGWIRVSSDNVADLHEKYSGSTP
T1 sequence (P20618 29-241): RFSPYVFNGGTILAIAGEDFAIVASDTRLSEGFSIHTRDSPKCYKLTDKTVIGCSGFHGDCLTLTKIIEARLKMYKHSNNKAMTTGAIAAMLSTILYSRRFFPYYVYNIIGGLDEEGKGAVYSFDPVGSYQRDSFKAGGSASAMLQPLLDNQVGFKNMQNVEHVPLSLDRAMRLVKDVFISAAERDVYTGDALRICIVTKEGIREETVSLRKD
Assay: not given
Format: cell-based
Conditions: assay of Example E, inhibition of MOLT4; read-out: MOLT4 (EC50)
Description: Cellular Assay for Chymotrypsin-like activity of Proteasome in Molt-4 Cell Line
The chymotrypsin-like activity of proteasome in Molt-4 cells (human leukemia) was assayed according to the following procedure. A brief description of the method was published previously (Harding et al., J. Immunol., 1995, 155, 1767).
Molt-4 cells were washed and resuspended in HEPES-buffered Saline (5.4 mM KCl, 120 mM NaCl, 25 mM Glucose, 1.5 mM MgSO4, 1 mM Na pyruvate, 20 mM Hepes) and plated in 96-well microtiter white plates to a final concentration of 6×10^6 cells/mL. Then various 5× proteasome inhibitor concentrations (or diluted DMSO for controls), prepared from 250×DMSO solutions by diluting 50-fold using HEPES-buffered saline, were added to the plate to a final 1× concentration. After 15 minutes incubation at 37° C., a fluorimetric cell permeable substrate (MeOSuc-FLF-AFC) (methoxysuccinyl-Phe-Leu-Phe-7-amido-4-trifluoromethylcoumarin) purchased from Enzyme Systems Products, catalogue number AFC-88, was added to each well at a final concentration of 25 μM from a stock solution of 20 mM in DMSO. Reaction volumes were 100 μl per well.
The concentration of free AFC was monitored every 1.5 min for 30 min ([…]) on a Polastar Optima, BMG Labtechnologies microplate reader, using an excitation wavelength of 390 nm and emission wavelength of 520 nm. Proteasome activity was determined under conditions in which substrate hydrolysis increased linearly with time and the change in fluorescent signal was proportional to the concentration of free AFC.
Determination of EC50 Values for Proteasome Inhibitors in MOLT-4 Cell Line
Inhibition of chymotrypsin-like activity of proteasome in Molt-4 cells was determined by incubating cells with various concentrations of putative inhibitors for 15 minutes at 37° C. prior to the addition of substrate. Each experimental condition was evaluated in triplicate, and replicate experiments were performed for the inhibitors described herein.

SMILES | EC50 [nM]
CC(C)C[C@H](NC(=O)[C@H](CCCNC(=N)N[N+](=O)[O-])NC(=O)CC1C=CCC1)B1O[C@@H]2C[C@@H]3C[C@@H](C3(C)C)[C@]2(C)O1 (mixture of isomers) [D.3.59] | 200 to 2000

Biological target: T2, 20S Human Erythrocyte Proteasome (HEP) (Homo sapiens, UniProt P20618+P28074)
T2 construct: 20S Human Erythrocyte Proteasome (HEP), purchased from Immatics Biotechnologies Inc; purchased Immatics Biotechnologies Inc., Tübingen, Germany; host or cells: human erythrocytes (natural source)
Assay: Chymotrypsin-like activity of 20S Human Erythrocyte Proteasome (HEP), IC50 determination
Format: biochemical
Conditions: assay of Example C, inhibition of HEP
Description: Assay for Chymotrypsin-like Activity of 20S Human Erythrocyte Proteasome (HEP)
Proteasome chymotrypsin-like activity of compounds of the invention was assayed according to the following procedure.
In 96-well microtiter plates, 20S Human Erythrocyte Proteasome (HEP), purchased from Immatics Biotechnologies Inc., Tübingen, Germany was plated at 0.2 μg/mL (about 0.6 nM catalytic sites) in 0.04% SDS 20 mM Tris buffer. A fluorimetric substrate Suc-LLVY-AMC (succinyl-Leu-Leu-Val-Tyr-7-amido-4-methylcoumarin), purchased from Sigma Inc., St. Louis, Mo., USA was added to a final concentration of 100 μM from a stock solution of 10 mM in dimethylsulfoxide. Reaction volumes were 100 μl per well. […] Proteasome activity was determined under conditions in which substrate hydrolysis increased linearly with time and the change in fluorescence signal was proportional to the concentration of free AMC.
Determination of IC50 Values for HEP and α-Chymotrypsin Inhibitors
Inhibition of the chymotrypsin-like activity of HEP and of bovine α-chymotrypsin was determined by incubating the enzyme with various concentrations of putative inhibitors for 15 minutes at 37° C. (or room temperature for α-chymotrypsin) prior to the addition of substrate. Each experimental condition was evaluated in triplicate, and replicate experiments were performed for the inhibitors described herein.

SMILES | IC50 [nM]
CC(C)C[C@H](NC(=O)[C@H](CCCNC(=N)N[N+](=O)[O-])NC(=O)CC1C=CCC1)B1O[C@@H]2C[C@@H]3C[C@@H](C3(C)C)[C@]2(C)O1 (mixture of isomers) [D.3.59] | < 10
CCCCC(CC)CCC(=O)N[C@@H](CCCNC(=N)N[N+](=O)[O-])C(=O)N[C@@H](CC(C)C)B1O[C@@H]2C[C@@H]3C[C@@H](C3(C)C)[C@]2(C)O1 (mixture of isomers) [D.3.78, (RS)-4-Ethyloctanamide,N-[(1S)-1-[[[(1R)-1-[(3aS,4S,6S,7aR)-hexahydro-3a,5,5-trimethyl-4,6-methano-1,3,2-benzodioxaborol-2-yl]-3-methylbutyl]amino]carbonyl]-4-[[imino(nitroamino)methyl]amino]butyl]] | < 10
CCCCC(C)CCC(=O)N[C@@H](CCCNC(=N)N[N+](=O)[O-])C(=O)N[C@@H](CC(C)C)B1O[C@@H]2C[C@@H]3C[C@@H](C3(C)C)[C@]2(C)O1 (mixture of isomers) [D.3.87, (RS)-4-Methyloctanamide,N-[(1S)-1-[[[(1R)-1-[(3aS,4S,6S,7aR)-hexahydro-3a,5,5-trimethyl-4,6-methano-1,3,2-benzodioxaborol-2-yl]-3-methylbutyl]amino]carbonyl]-4-[[imino(nitroamino)methyl]amino]butyl]] | < 10
CC(C)C[C@H](NC(=O)[C@H](CCCNC(=N)N[N+](=O)[O-])NC(=O)CN1CCCCC1)B1O[C@@H]2C[C@@H]3C[C@@H](C3(C)C)[C@]2(C)O1 [D.1.9, 2-Piperidin-1-yl-acetamide,N-[(1S)-1-[[[(1R)-1-[(3aS,4S,6S,7aR)-hexahydro-3a,5,5-trimethyl-4,6-methano-1,3,2-benzodioxaborol-2-yl]-3-methylbutyl]amino]carbonyl]-4-[[imino(nitroamino)methyl]amino]butyl]] | < 100
C=CCCCCCCCC(=O)N[C@@H](CCCNC(=N)N[N+](=O)[O-])C(=O)N[C@@H](CC(C)C)B1O[C@@H]2C[C@@H]3C[C@@H](C3(C)C)[C@]2(C)O1 [D.3.68, Dec-9-enamide,N-[(1S)-1-[[[(1R)-1-[(3aS,4S,6S,7aR)-hexahydro-3a,5,5-trimethyl-4,6-methano-1,3,2-benzodioxaborol-2-yl]-3-methylbutyl]amino]carbonyl]-4-[[imino(nitroamino)methyl]amino]butyl]] | < 10
CCCCCCCC/C=C/C(=O)N[C@@H](CCCNC(=N)N[N+](=O)[O-])C(=O)N[C@@H](CC(C)C)B1O[C@@H]2C[C@@H]3C[C@@H](C3(C)C)[C@]2(C)O1 [D.3.69, (E)-Undec-2-enoic acid amide,N-[(1S)-1-[[[(1R)-1-[(3aS,4S,6S,7aR)-hexahydro-3a,5,5-trimethyl-4,6-methano-1,3,2-benzodioxaborol-2-yl]-3-methylbutyl]amino]carbonyl]-4-[[imino(nitroamino)methyl]amino]butyl]] | < 10
Cc1ccc(CSCCC(=O)N[C@@H](CCCNC(=N)N[N+](=O)[O-])C(=O)N[C@@H](CC(C)C)B2O[C@@H]3C[C@@H]4C[C@@H](C4(C)C)[C@]3(C)O2)cc1 [D.3.76, 3-[(4-methylbenzyl)sulfanyl]propanamide,N-[(1S)-1-[[[(1R)-1-[(3aS,4S,6S,7aR)-hexahydro-3a,5,5-trimethyl-4,6-methano-1,3,2-benzodioxaborol-2-yl]-3-methylbutyl]amino]carbonyl]-4-[[imino(nitroamino)methyl]amino]butyl]] | < 10
CC(C)=CCC[C@H](C)CC(=O)N[C@@H](CCCNC(=N)N[N+](=O)[O-])C(=O)N[C@@H](CC(C)C)B1O[C@@H]2C[C@@H]3C[C@@H](C3(C)C)[C@]2(C)O1 [D.3.77, (3S)-3,7-Dimethyl-oct-6-enoic acid amide,N-[(1S)-1-[[[(1R)-1-[(3aS,4S,6S,7aR)-hexahydro-3a,5,5-trimethyl-4,6-methano-1,3,2-benzodioxaborol-2-yl]-3-methylbutyl]amino]carbonyl]-4-[[imino(nitroamino)methyl]amino]butyl]] | < 10
CC(C)C[C@H](NC(=O)[C@H](CCCNC(=N)N[N+](=O)[O-])NC(=O)COc1ccc(Br)cc1)B1O[C@@H]2C[C@@H]3C[C@@H](C3(C)C)[C@]2(C)O1 [D.3.80, 2-(4-Bromophenoxy)-acetamide,N-[(1S)-1-[[[(1R)-1-[(3aS,4S,6S,7aR)-hexahydro-3a,5,5-trimethyl-4,6-methano-1,3,2-benzodioxaborol-2-yl]-3-methylbutyl]amino]carbonyl]-4-[[imino(nitroamino)methyl]amino]butyl]] | < 10
CC(C)C[C@H](NC(=O)[C@H](CCCNC(=N)N[N+](=O)[O-])NC(=O)CC1CC2CCC1C2)B1O[C@@H]2C[C@@H]3C[C@@H](C3(C)C)[C@]2(C)O1 (stereo partly drawn) [D.3.89, 2-(Bicyclo[2.2.1]hept-2-yl)acetamide,N-[(1S)-1-[[[(1R)-1-[(3aS,4S,6S,7aR)-hexahydro-3a,5,5-trimethyl-4,6-methano-1,3,2-benzodioxaborol-2-yl]-3-methylbutyl]amino]carbonyl]-4-[[imino(nitroamino)methyl]amino]butyl]] | < 10
CC(C)C[C@H](NC(=O)[C@H](CCCNC(=N)N[N+](=O)[O-])NC(=O)CCCCc1cccs1)B1O[C@@H]2C[C@@H]3C[C@@H](C3(C)C)[C@]2(C)O1 [D.3.115, 5-Thiophen-2-yl-pentanamide,N-[(1S)-1-[[[(1R)-1-[(3aS,4S,6S,7aR)-hexahydro-3a,5,5-trimethyl-4,6-methano-1,3,2-benzodioxaborol-2-yl]-3-methylbutyl]amino]carbonyl]-4-[[imino(nitroamino)methyl]amino]butyl]] | < 10
CCCCCCCc1ccc(C(=O)N[C@@H](CCCNC(=N)N[N+](=O)[O-])C(=O)N[C@@H](CC(C)C)B2O[C@@H]3C[C@@H]4C[C@@H](C4(C)C)[C@]3(C)O2)cc1 [D.3.130, 4-Heptylbenzamide,N-[(1S)-1-[[[(1R)-1-[(3aS,4S,6S,7aR)-hexahydro-3a,5,5-trimethyl-4,6-methano-1,3,2-benzodioxaborol-2-yl]-3-methylbutyl]amino]carbonyl]-4-[[imino(nitroamino)methyl]amino]butyl]] | < 10
COC(=O)CCCC(=O)N[C@@H](CCCNC(=N)N[N+](=O)[O-])C(=O)N[C@@H](CC(C)C)B(O)O [E.1.10, Boronic acid, [(1R)-1-[[(2S)-5-[[imino(nitroamino)methyl]amino]-2-[[4-(methoxycarbonyl)butanoyl]amino]-1-oxopentyl]amino]-3-methylbutyl]] | < 10
CCCCN1CCC(CCCC(=O)N[C@@H](CCCNC(=N)N[N+](=O)[O-])C(=O)N[C@@H](CC(C)C)B(O)O)CC1 [E.1.14, Boronic acid, [(1R)-1-[[(2S)-5-[[imino(nitroamino)methyl]amino]-2-[(1-oxo-4-(1-butylpiperidin-4-yl)butyl)amino]-1-oxopentyl]amino]-3-methylbutyl]] | < 10
CCCCCCCCCC(=O)N[C@@H](CCCNC(=N)N[N+](=O)[O-])C(=O)N[C@@H](CC(C)C)B1O[C@H](C2CCCCC2)[C@@H](C2CCCCC2)O1 [F.1, Decanamide, N-[(1S)-1-[[[(1R)-1-[(4R,5R)-4,5-dicyclohexyl-[1,3,2]dioxaborolan-2-yl]-3-methylbutyl]amino]carbonyl]-4-[[imino(nitroamino)methyl]amino]butyl]-] | < 10
